Active and inactive are the calls of the source. The calls are words filed in the database; no cut-off is given here.

In experiment [1] the test system is THP-1. As to the kind of experiment: Antiinflammatory activity in PMA-differentiated human THP-1 macrophages assessed as decrease in TNF-alpha production at 10 uM incubated for 24 hrs in the presence of JTE907 by ELISA coupled qRT-PCR analysis. It is filed as functional, cell-based.
Experiment [2] has as its system THP-1. The experiment in a line: Antiinflammatory activity against LPS-activated PMA-differentiated human THP-1 macrophages assessed as decrease in IL-1beta production at 10 uM incubated for 24 hrs by ELISA coupled qRT-PCR analysis relative to control. It is filed as functional. The arrangement: scale not given: the % may be the effect or the level left.
For experiment [3], the system named is THP-1. The experiment in a line: Antiinflammatory activity in human THP-1 monocytes assessed as increase in IL-10 production at 10 uM incubated for 24 hrs by ELISA coupled qRT-PCR analysis. It is filed as functional, cell-based.
Experiment [4] has as its system THP-1. The experiment in a line: Antiinflammatory activity in LPS-activated PMA-differentiated human THP-1 macrophages assessed as decrease in IFN-gamma production at 10 uM incubated for 24 hrs in the presence of JTE907 by ELISA coupled qRT-PCR analysis. The experiment is classed as functional, cell-based.
For experiment [5], the system named is THP-1. As to the kind of experiment: Antiinflammatory activity in LPS-activated PMA-differentiated human THP-1 macrophages assessed as increase in IL-4 production at 10 uM incubated for 24 hrs in the presence of JTE907 by ELISA coupled qRT-PCR analysis. It is filed as functional, cell-based.
Experiment [6] has as its system THP-1. The experiment in a line: Antiinflammatory activity in human THP-1 monocytes assessed as decrease in IFN-gamma production at 10 uM incubated for 24 hrs in the presence of N-(adamantan-1-yl)-4-(pentylamino)-[1,1'-biphenyl]-3-carboxamide by ELISA coupled qRT-PCR analysis. The experiment is classed as functional, cell-based.
Experiment [7] concerns THP-1. As to the kind of experiment: Antiinflammatory activity in human THP-1 monocytes assessed as decrease in IL-1beta production at 10 uM incubated for 24 hrs in the presence of N-(adamantan-1-yl)-4-(pentylamino)-[1,1'-biphenyl]-3-carboxamide by ELISA coupled qRT-PCR analysis. The experiment is classed as functional, cell-based.
The subject of experiment [8] is THP-1. As to the kind of experiment: Antiinflammatory activity in LPS-activated PMA-differentiated human THP-1 macrophages assessed as decrease in TNF-alpha production at 10 uM incubated for 24 hrs in the presence of JTE907 by ELISA coupled qRT-PCR analysis. The experiment is classed as functional, cell-based.
For experiment [9], the system named is THP-1. The experiment in a line: Antiinflammatory against LPS-activated human THP-1 monocytes assessed as increase in IL-10 production at 10 uM incubated for 24 hrs in the presence of JTE907 by ELISA coupled qRT-PCR analysis. It is filed as functional, cell-based.
For experiment [10], the system named is THP-1. As to the kind of experiment: Antiinflammatory activity in LPS-activated PMA-differentiated human THP-1 macrophages assessed as decrease in IL-6 production at 10 uM incubated for 24 hrs in the presence of JTE907 by ELISA coupled qRT-PCR analysis. It is filed as functional, cell-based.
The test system of experiment [11] is THP-1. As to the kind of experiment: Antiinflammatory activity against LPS-activated human THP-1 monocytes assessed as increase in IL-4 production at 10 uM incubated for 24 hrs in the presence of N-(adamantan-1-yl)-4-(pentylamino)-[1,1'-biphenyl]-3-carboxamide by ELISA coupled qRT-PCR analysis. It is filed as functional, cell-based.
The test system of experiment [12] is THP-1. As to the kind of experiment: Antiinflammatory against LPS-activated human THP-1 monocytes assessed as decrease in IFN-gamma production at 10 uM incubated for 24 hrs in the presence of JTE907 by ELISA coupled qRT-PCR analysis. The experiment is classed as functional, cell-based.
In experiment [13] the test system is THP-1. As to the kind of experiment: Antiinflammatory activity in PMA-differentiated human THP-1 macrophages assessed as increase in IL-10 production at 10 uM incubated for 24 hrs by ELISA coupled qRT-PCR analysis. The experiment is classed as functional, cell-based.
Experiment [14] concerns THP-1. As to the kind of experiment: Antiinflammatory activity against LPS-activated human THP-1 monocytes assessed as decrease in IFN-gamma production at 10 uM incubated for 24 hrs in the presence of N-(adamantan-1-yl)-4-(pentylamino)-[1,1'-biphenyl]-3-carboxamide by ELISA coupled qRT-PCR analysis. It is filed as functional, cell-based.
Experiment [15] has as its system THP-1. As to the kind of experiment: Antiinflammatory activity against LPS-activated PMA-differentiated human THP-1 monocytes assessed as decrease in TNF-alpha production at 10 uM incubated for 24 hrs in the presence of N-(adamantan-1-yl)-4-(pentylamino)-[1,1'-biphenyl]-3-carboxamide by ELISA coupled qRT-PCR analysis. The experiment is classed as functional, cell-based.

For experiment [16], the system named is THP-1. The experiment in a line: Antiinflammatory activity in human THP-1 monocytes assessed as decrease in IL-6 production at 10 uM incubated for 24 hrs in the presence of N-(adamantan-1-yl)-4-(pentylamino)-[1,1'-biphenyl]-3-carboxamide by ELISA coupled qRT-PCR analysis. The experiment is classed as functional, cell-based.
The subject of experiment [17] is THP-1. The experiment in a line: Antiinflammatory activity in PMA-differentiated human THP-1 macrophages assessed as decrease in IFN-gamma production at 10 uM incubated for 24 hrs in the presence of JTE907 by ELISA coupled qRT-PCR analysis. It is filed as functional, cell-based.
Experiment [18] deals with THP-1. The experiment in a line: Antiinflammatory activity in PMA-differentiated human THP-1 monocytes assessed as decrease in IL-1beta production at 10 uM incubated for 24 hrs in the presence of N-(adamantan-1-yl)-4-(pentylamino)-[1,1'-biphenyl]-3-carboxamide by ELISA coupled qRT-PCR analysis. It is filed as functional, cell-based.
In experiment [19] the test system is THP-1. As to the kind of experiment: Antiinflammatory activity in human THP-1 monocytes assessed as decrease in IL-1beta production at 10 uM incubated for 24 hrs in the presence of JTE907 by ELISA coupled qRT-PCR analysis. It is filed as functional, cell-based.
In experiment [20] the test system is THP-1. The experiment in a line: Antiinflammatory activity in PMA-differentiated human THP-1 macrophages assessed as decrease in TNF-alpha production at 1 to 10 uM incubated for 24 hrs in the presence of JTE907 by ELISA coupled qRT-PCR analysis. It is filed as functional, cell-based. As to conditions: dose 1-10 µM.
In experiment [21] the test system is THP-1. The experiment in a line: Antiinflammatory activity in human THP-1 monocytes assessed as decrease in TNF-alpha production at 1 to 10 uM incubated for 24 hrs in the presence of JTE907 by ELISA coupled qRT-PCR analysis. The experiment is classed as functional, cell-based. Conditions: dose 1-10 µM.
The subject of experiment [22] is THP-1. The experiment in a line: Antiinflammatory activity in PMA-differentiated human THP-1 macrophages assessed as reduction in IFN-gamma production at 1 to 10 uM incubated for 24 hrs by ELISA coupled qRT-PCR analysis relative to control. It is filed as functional. The arrangement: scale not given: the % may be the effect or the level left. As to conditions: dose 1-10 µM.

Experiment [23] deals with THP-1. The experiment in a line: Antiinflammatory activity against LPS-activated PMA-differentiated human THP-1 macrophages assessed as increase in IL-4 production at 1 to 10 uM incubated for 24 hrs by ELISA coupled qRT-PCR analysis. It is filed as functional, cell-based. Conditions: dose 1-10 µM.
For experiment [24], the system named is THP-1. The experiment in a line: Antiinflammatory activity in human THP-1 monocytes assessed as increase in IL-10 production incubated for 24 hrs by ELISA coupled qRT-PCR analysis. It is filed as functional, cell-based. As to conditions: dose 1-10 µM.
The subject of experiment [25] is THP-1. As to the kind of experiment: Antiinflammatory activity against LPS-activated PMA-differentiated human THP-1 macrophages assessed as decrease in IFN-gamma production at 1 to 10 uM incubated for 24 hrs by ELISA coupled qRT-PCR analysis relative to control. The arrangement: scale not given: the % may be the effect or the level left. It is filed as functional. Conditions: dose 1-10 µM.

The subject of experiment [26] is THP-1. As to the kind of experiment: Antiinflammatory against LPS-activated human THP-1 monocytes assessed as decrease in TNF-alpha production at 1 to 10 uM incubated for 24 hrs in the presence of JTE907 by ELISA coupled qRT-PCR analysis. As to conditions: dose 1-10 µM. It is filed as functional, cell-based.
Experiment [27] has as its system THP-1. As to the kind of experiment: Antiinflammatory activity in PMA-differentiated human THP-1 macrophages assessed as reduction in IL-6 production at 1 to 10 uM incubated for 24 hrs by ELISA coupled qRT-PCR analysis relative to control. It is filed as functional. The arrangement: scale not given: the % may be the effect or the level left. As to conditions: dose 1-10 µM.

The test system of experiment [28] is THP-1. As to the kind of experiment: Antiinflammatory activity in PMA-differentiated human THP-1 macrophages assessed as decrease in IFN-gamma production at 1 to 10 uM incubated for 24 hrs in the presence of JTE907 by ELISA coupled qRT-PCR analysis. Conditions: dose 1-10 µM. The experiment is classed as functional, cell-based.

Turning to `O=C(NC1CCCCC1)c1cn(CCN2CCOCC2)c2cc(Cl)ccc2c1=O`, the outcome in [1], in experiment [4], in experiment [5], in [6], in [7] and in experiment [8] was inactive. Besides, the result in [9], in experiment [10], in experiment [11], in experiment [12], in [14] and in experiment [15] was inactive. For the same compound, the outcome in [16], in experiment [17], in [18] and in [19] was inactive. Further, the Activity in experiment [2] stood at 70%. Moreover, the result in experiment [3] and in experiment [13] was Active.

With `CCCCCNc1ccccc1C(=O)NC12CC3CC(CC(C3)C1)C2`, the result in experiment [20], in experiment [21], in [26] and in experiment [28] was inactive. For the same compound, the Activity is 50% in experiment [22], “Dose-Dependent Effect” in experiment [24], 70% in experiment [25] and 50% in [27]. Also, in [23], the outcome was Active.

Source of the values: ChEMBL document CHEMBL5321210, “N-adamantyl-anthranil amide derivatives: New selective ligands for the cannabinoid receptor subtype 2 (CB2R)” (Eur J Med Chem, 2023).
